This is an account of results in PubChem BioAssay (NCI).

Among the test systems are MDA-MB-435; SNB-19 CNS; SK-MEL-5 melanoma; SF-268 CNS; LOX IMVI melanoma; OVCAR-4 ovarian; MOLT-4 leukemia; EKVX NSCLC; DU-145 prostate; NCI/ADR-RES ovarian.
Holding throughout (assay): DTP human tumour cell line panel, 48 h

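Values below derive from 48-hour exposures of cells grown in 96-well plates, with endpoints linearly interpolated between the two concentrations bracketing the appropriate inhibition level. GI50 = concentration required for 50% inhibition of growth. Definition used: TGI = concentration required for complete inhibition of growth.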

On to `Cc1ccc(S(=O)(=O)OCC(=O)Nc2ccc(C(=O)O)c(O)c2)cc1`, for which the GI50 is 39.9 µM with MDA-MB-435; 66.5 µM with SNB-19 CNS; 27 µM with SK-MEL-5 melanoma; 19.5 µM in the assay with SF-268 CNS; 20800 nM with LOX IMVI melanoma; 26.8 µM in the assay on OVCAR-4 ovarian. The GI50 is 16.5 µM in the assay with MOLT-4 leukemia, 165 µM with EKVX NSCLC, 26.8 µM in the assay with DU-145 prostate and 32.2 µM in the assay with NCI/ADR-RES ovarian. In addition, the TGI was 169 µM with MDA-MB-435; 242 µM with SNB-19 CNS; 82.6 µM in the assay with SK-MEL-5 melanoma; 53.5 µM in the assay on SF-268 CNS; 61 µM with LOX IMVI melanoma; 143 µM in the assay on OVCAR-4 ovarian. In addition, the TGI is 87.9 µM in the assay on MOLT-4 leukemia, 332 µM with EKVX NSCLC, 75.9 µM in the assay on DU-145 prostate and 162 µM with NCI/ADR-RES ovarian.
With `O=C(Nc1ccn(C2CC(I)C(COC(c3ccccc3)(c3ccccc3)c3ccccc3)O2)c(=O)n1)c1ccccc1` (stereo not given), the TGI came out at 15.7 µM in the assay with MDA-MB-435; 21.5 µM with SNB-19 CNS; 14.9 µM in the assay with SK-MEL-5 melanoma; 17.9 µM in the assay on SF-268 CNS; 14.7 µM with LOX IMVI melanoma; 16.7 µM in the assay with OVCAR-4 ovarian. Also, the TGI in the assay with MOLT-4 leukemia was found to be 12.1 µM; in the assay with EKVX NSCLC, 21.5 µM; in the assay with DU-145 prostate, 21.5 µM; with NCI/ADR-RES ovarian, 20.2 µM.
Regarding `CN1C(=O)/C(=C2\S/C(=N\c3nnc(-c4ccccc4)o3)NC2=O)c2ccccc21`, the GI50 with MDA-MB-435 is more than 100 µM; in the assay with SNB-19 CNS, more than 100 µM; in the assay on SK-MEL-5 melanoma, 90.1 µM; with SF-268 CNS, more than 100 µM; in the assay on LOX IMVI melanoma, 77900 nM; with OVCAR-4 ovarian it was more than 100 µM. Also, the GI50 is more than 100 µM in the assay on MOLT-4 leukemia, more than 100 µM with EKVX NSCLC, more than 100 µM in the assay with DU-145 prostate and 84.7 µM in the assay with NCI/ADR-RES ovarian. For the same molecule, the TGI with MDA-MB-435, with SNB-19 CNS, in the assay with SK-MEL-5 melanoma, in the assay with SF-268 CNS, in the assay with LOX IMVI melanoma and in the assay with OVCAR-4 ovarian was more than 100 µM in each case. Besides, the TGI in the assay with MOLT-4 leukemia, in the assay on EKVX NSCLC, with DU-145 prostate and in the assay on NCI/ADR-RES ovarian was more than 100 µM in each case.
For `CCNC(=O)Oc1ccc(/C(=C(\C)c2ccc(Cl)cc2)c2ccc(OCCN(CC)CC)cc2)cc1`, the GI50 in the assay with MDA-MB-435 was 3.44 µM; in the assay on SNB-19 CNS it was 3.13 µM; in the assay on SK-MEL-5 melanoma, 1.75 µM; in the assay with SF-268 CNS, 5.99 µM; in the assay with LOX IMVI melanoma, 1940 nM; with OVCAR-4 ovarian, 3.65 µM. In addition, the GI50 is 3.07 µM in the assay on MOLT-4 leukemia, 10.3 µM in the assay with EKVX NSCLC, 11.1 µM with DU-145 prostate and 6.8 µM in the assay with NCI/ADR-RES ovarian. Besides, the TGI in the assay on MDA-MB-435 is 12.8 µM; in the assay with SNB-19 CNS it was 8.45 µM; with SK-MEL-5 melanoma, 3.15 µM; with SF-268 CNS, 21 µM; with LOX IMVI melanoma, 4.02 µM; with OVCAR-4 ovarian it was 17.3 µM. Also, the TGI in the assay on MOLT-4 leukemia worked out at 11 µM; in the assay with EKVX NSCLC, 23.6 µM; in the assay with DU-145 prostate, 24.2 µM; in the assay on NCI/ADR-RES ovarian, 22.7 µM.
Take `Clc1ccc(-c2nc3c(-c4ccccc4)nc(-c4ccccc4)cn3c2-c2ccc(Cl)cc2)cc1`: the GI50 was more than 100 µM in the assay with MDA-MB-435; more than 100 µM in the assay on SNB-19 CNS; more than 100 µM in the assay on SK-MEL-5 melanoma; more than 100 µM with SF-268 CNS; more than 100000 nM in the assay on LOX IMVI melanoma; more than 100 µM in the assay on OVCAR-4 ovarian. The GI50 with MOLT-4 leukemia, with EKVX NSCLC, in the assay on DU-145 prostate and in the assay with NCI/ADR-RES ovarian was more than 100 µM in each case. The TGI with MDA-MB-435, in the assay with SNB-19 CNS, in the assay on SK-MEL-5 melanoma, with SF-268 CNS, in the assay on LOX IMVI melanoma and with OVCAR-4 ovarian was more than 100 µM in each case. Besides, the concentration for total growth inhibition (TGI) in the assay with MOLT-4 leukemia, in the assay on EKVX NSCLC, in the assay with DU-145 prostate and with NCI/ADR-RES ovarian was more than 100 µM in each case.
For the molecule `CC(C)(C)[Si](C)(C)OC1[C@@H](O[Si](C)(C)C(C)(C)C)[C@@H](CNC(=O)NC(=O)NC(=O)CCl)O[C@H]1n1cnc2c(NC(=O)Nc3ccccc3)ncnc21` (stereo not given in full), the GI50 in the assay with MDA-MB-435 is 6.61 µM; in the assay on SNB-19 CNS it was 15.7 µM; in the assay on SK-MEL-5 melanoma it was 8.21 µM; in the assay with SF-268 CNS it was 4.51 µM; in the assay with LOX IMVI melanoma, 236 nM; in the assay with OVCAR-4 ovarian, 3.31 µM. Further, the GI50 in the assay with MOLT-4 leukemia was 1.17 µM; with EKVX NSCLC it was 1.69 µM; with DU-145 prostate it was 7.88 µM; with NCI/ADR-RES ovarian, 6.45 µM. Moreover, the TGI with MDA-MB-435 was found to be 17.6 µM; with SNB-19 CNS, 48.6 µM; with SK-MEL-5 melanoma it was 15 µM; with SF-268 CNS, 14 µM; in the assay on LOX IMVI melanoma it was 0.52 µM; with OVCAR-4 ovarian, 10.5 µM. Moreover, the TGI in the assay on MOLT-4 leukemia was found to be 2.53 µM; with EKVX NSCLC, 6.54 µM; in the assay on DU-145 prostate, 16.4 µM; with NCI/ADR-RES ovarian it was 15.9 µM.
As to `O=C(COc1cccc(/C=C2\COc3ccccc3C2=O)c1)c1ccccc1`, the GI50 with MDA-MB-435 was 3.14 µM; in the assay on SNB-19 CNS, 11.8 µM; in the assay on SK-MEL-5 melanoma, 2.83 µM; in the assay with SF-268 CNS, 3.23 µM; with LOX IMVI melanoma, 1660 nM; with OVCAR-4 ovarian, 3.84 µM. Besides, the GI50 in the assay with MOLT-4 leukemia is 3.26 µM; in the assay with EKVX NSCLC it was 7.98 µM; in the assay with DU-145 prostate it was 6.11 µM; in the assay with NCI/ADR-RES ovarian, 3.26 µM. For the same molecule, the TGI was found to be 10.7 µM in the assay on MDA-MB-435; 24 µM with SNB-19 CNS; 7.63 µM with SK-MEL-5 melanoma; 10.2 µM in the assay on SF-268 CNS; 3.12 µM in the assay on LOX IMVI melanoma; 15.4 µM with OVCAR-4 ovarian. Besides, the TGI in the assay with MOLT-4 leukemia was found to be 11.1 µM; in the assay with EKVX NSCLC, 20.6 µM; in the assay with DU-145 prostate, 17.4 µM; in the assay on NCI/ADR-RES ovarian, 11.8 µM.
